US6171786A, “Methods for preventing multidrug resistance in cancer cells” (priority 1996, dated 2001)
“Also recorded” adds a separate entry of the source.

Experiments:
[1] = tested on: MDR1 expression; assay: Induction of MDR1 expression by agents that increase intracellular Ca2+; format: cell-based, human; conditions: H9 cells; 10 μM, 10 hrs
Protocol: H9 cells were seeded into each well of 6-well plates (10^5 cells/well in 3 mL of RPMI-1640 medium/10% fetal bovine serum/2 mM L-glutamine/100 U/mL penicillin and 100 μg/mL streptomycin). Experimental cultures were treated with either the calcium-specific ionophore A23187 or an inhibitor of Ca^2+ -dependent ATPase, thapsigargin. Cells were incubated with 10 μM A23187 or 10 μg/mL thapsigargin for 10 hrs at 37° C., 5% CO2 in a humidified atmosphere. Negative control cultures were incubated as above without the addition of either A23187 or thapsigargin.
After each incubation was complete, steady-state levels of MDR1- and β2 -microglobulin mRNA (internal standard) were determined by RT-PCR as described above in Example 4. PCR products were then analyzed in 7.5% polyacrylamide gel electrophoresis and autoradiographed. […] The absence of the MDR1-specific band and presence of the β2 -microglobulin specific band was consistent with the results on uninduced H9 cells shown above in Examples 4 and 5 and FIGS. 7A through 7F.

[2] = tested on: MDR1 expression (P-glycoprotein); assay: Induction of MDR1 expression by cytotoxic drugs (dye efflux, UIC2, cDNA-PCR); format: cell-based, human; conditions: for maintenance of MDR1 expression after removal of drug: K562 subpopulation
Protocol: (Commercially-available kits (for example, from GIBCO/BRL, Gaithersburg, Md.) can be advantageously modified for making cDNA using random hexamers.) PCR is then performed using the following primers: […]
(where β2 M represents β2 microglobulin). PCR was performed for β2 M experiments under a regime consisting of 1 cycle comprising denaturation at 94° C. for 3 minutes, primer annealing at 60° C. for 30 seconds, and primer extension at 72° C. for 1 minute, followed by 19 cycles comprising denaturation at 94° C. for 30 seconds, primer annealing at 60° C. for 30 seconds, and primer extension at 72° C. for 1 minute, followed by a final cycle comprising denaturation at 94° C. for 30 seconds, primer annealing at 60° C. for 30 seconds, and primer extension at 72° C. for 5 minutes. MDR1 cDNA sequences were amplified using the identical protocol as for β2 M, but extending the amplification from 19 cycles to 25 cycles. In addition, the cDNA-PCR amplification protocol contained the following modifications: (i) Taq DNA polymerase was added to the PCR mixtures after initial heating of the samples to 94° C. (ii) The yield of the β2 -microglobulin-specific band, obtained after 22-28 cycles of PCR, was used as the primary criterion for equalizing the starting amounts of the cDNA templates in different preparations, in order to account for differential RNA degradation in cells subjected to different types of treatment. ^32 P-labeled PCR products were detected by autoradiography.
In particular PKC is activated by treatment with Ara-C. Therefore, experiments were performed to test whether Ara-C, which is not transported by P-glycoprotein, would have any effect on P-glycoprotein function in K562 leukemia cells.
Also assayed was whether drug-induced MDR1 expression was maintained after cytotoxic drug treatment. […] At different times, MDR1 expression in the surviving cells was analyzed by dye efflux and immunofluorescence labeling with UIC2 (FIG. 3C) or by cDNA-PCR (FIG. 4E).

[3] = tested on: MRP expression; assay: Inhibition of MRP mRNA expression in H-9 cells (cDNA-PCR); format: cell-based, human; design: Inhibition of MRP expression: key to the marks not given beside the values
Protocol: Cells were plated in 6-well Falcon tissue culture plates at 3,300 cells per well, and incubated in the appropriate concentrations of drugs. Each of the protein kinase inhibitors to be tested were added at their appropriate final concentrations, and the cells then incubated for 10 hours at 37° C. under an atmosphere of 5% CO2.
PCR was performed using the following primers: […]
(where β2 M represents β2 microglobulin). PCR was performed for β2 M experiments under a regime consisting of 1 cycle comprising denaturation at 94° C. for 3 minutes, primer annealing at 60° C. for 30 seconds, and primer extension at 72° C. for 1 minute, followed by 19 cycles comprising denaturation at 94° C. for 30 seconds, primer annealing at 60° C. for 30 seconds, and primer extension at 72° C. for 1 minute, followed by a final cycle comprising denaturation at 94° C. for 30 seconds, primer annealing at 60° C. for 30 seconds, and primer extension at 72° C. for 5 minutes.
H-9 cells were used to analyze the effect of various protein kinase inhibitors on the expression of the multidrug resistance associated protein MRP (Grant et al., ibid.).

[4] = tested on: MDR1 expression; assay: Inhibition of cytotoxic drug-induced MDR1 expression by inhibitors of NF-κB activation; format: cell-based, human; conditions: H9
[5] = tested on: MDR1 expression; assay: Inhibition of AraC-induced MDR1 expression by phospholipase C inhibitors (RT-PCR); format: cell-based, human; conditions: U73122 1 and 10 μM; H9, 25 μM AraC
Protocol: The inhibitor was added 45 min. prior to the addition of Ara C. Negative control cultures were incubated as above without the addition of either AraC or U73122.
The specificity of phospholipase C-targeted inhibition of MDR1 induction by cytotoxic drugs was determined in a comparative experiment using a known inhibitor of […] phospholipase C (PC-PLC).

[6] = tested on: MDR1 expression; assay: Inhibition of cytotoxic drug-induced MDR1 expression by cytoplasmic calcium antagonists and calmodulin inhibitors; format: cell-based, human; conditions: H9, 10 μM calmidazolium chloride, 25 μM AraC
Protocol: H9 cells were incubated as described above in the presence of the following cytotoxic drugs: Ara C (at a concentration of 25 μM), Adriamycin (2 μM), bleomycin (100 μg/ml), 2-deoxyglucose (10 mM) and nocodazole (2.5 μM). In parallel, cultures of H9 cells were incubated in the presence of each of these cytotoxic drugs and of a highly specific chelator of intracellular calcium ion, 1, 2-bis(o-aminophenoxy)-ethane-N,N,N',N'-tetraacetic acid, tetra(acetoxymethyl)-ester (BAPTA/AM) at a concentration of 5 μM for 10 hrs. under the conditions described above. The inhibitor was added 45 min. prior to the addition of each of the MDR1 inducing agents. cDNA-PCR analysis, including gel electrophoresis and autoradiography as described above, was performed for each culture after drug treatment in the presence or absence of this chelator.
H9 cells were incubated as above with 25 μM AraC in the presence or absence of 10 μM calmidazolium chloride, and cDNA-PCR analysis as described above was performed.

[7] = tested on: MDR1 expression; assay: Inhibition of cytotoxic drug-induced MDR1 expression by protein kinase inhibitors (cDNA-PCR)
Protocol: (§1) Cells were plated in 6-well Falcon tissue culture plates at 3,300 cells per well, and incubated in the appropriate concentrations of drugs. Each of the protein kinase inhibitors to be tested were added at the appropriate final concentration 45 minutes prior to MDR1 induction by the addition of Ara-C or TPA, with the exception of herbimycin A, which was added 12 hours prior to Ara-C or TPA, and tyrphostins A25 and B46, which were each added 16 hours prior to MDR1 induction by the addition of Ara-C or TPA. Cells were incubated overnight (TPA) or for 10 hours (Ara-C) at 37° C./ 5% CO2 after the addition of the MDR1 inducing agents before harvesting for cDNA-PCR analysis.
In addition, the analysis of certain drugs imposed added requirements. For experiments using calphostin C, cells were incubated under direct white light illumination. For experiments using D,L-threo-sphingosine, the cell culture medium was pre-treated with the appropriate concentration of the drug for one hour at 37° C. with continuous gentle mixing. After this pretreatment, cells were resuspended in media supplemented with drug and incubated for 45 minutes as described above.
To further evaluate the capacity of protein kinase inhibitors to suppress MDR1 induction by cytotoxic drugs and PKC agonists, H-9 human T-cell leukemia cells were used in cDNA-PCR assays to examine induced MDR1 mRNA expression levels in the presence of protein kinase inhibitors.

[8] = tested on: MDR1 expression; assay: Inhibition of TPA- or DOG-induced MDR1 expression; format: cell-based, human; conditions: H-9 cells; 32 μM erbstatin analog
Protocol: PBL were treated with 1 ng/mL TPA; H9 and K562 cells with 10 ng/mL TPA; KG1a and KG1 cells with 100 ng/mL TPA and the other cell lines with 10 ng/mL TPA.
as §1

Compound: CNc1ccc2oc(C[C@H]3O[C@@]4(CC[C@H]3C)O[C@H]([C@H](C)C(=O)c3ccc[nH]3)[C@H](C)C[C@H]4C)nc2c1C(=O)O [A23187]
- MDR1 expression (RT-PCR) [1]: capable of inducing MDR1 gene expression; also recorded: a clear MDR1-specific band was detected

Compound: Nc1ccn([C@@H]2O[C@H](CO)[C@@H](O)[C@@H]2O)c(=O)n1 [Ara-C, 1-β-D-arabinofuranosylcytosine]
- MDR1 mRNA expression ([2]; EJ bladder carcinoma, 10 μM Ara-C): activated MDR1 mRNA expression
- MDR1 mRNA expression ([2]; H9 T-cell leukemia): a clear MDR1-specific band was detected
- subpopulation of cells that effluxed Rh123 ([2]; K562, Ara-C 12-72 hours): 3-17%
- MDR1 mRNA expression ([2]; K562, cDNA-PCR): dose-dependent increase in MDR1 mRNA expression
- maintenance of MDR1 expression after removal of drug ([2]; drug-free medium): up to 11 weeks
- maintenance of MDR1 expression after removal of drug ([2]; treated 3-5 days then drug-free): maintained for a least several weeks
- MDR1 mRNA expression ([2]; KB-3-1 epidermoid carcinoma): activated MDR1 mRNA expression
- P-glycoprotein expression ([2]; KG1 leukemia cells, 10 μM Ara-C): increased P-glycoprotein expression
- MDR1 induction ([2]; human leukemia and solid-tumor derived cell lines, short-term exposure): MDR1 induction, both at the mRNA and at the protein levels, was observed
- MRP expression ([3]; 25 μM Ara-C, data not shown): slight decrease in MRP expression

Compound: Cc1ccc(S(=O)(=O)N[C@@H](Cc2ccccc2)C(=O)CCl)cc1 [N-tosyl-L-phenylalanine chloromethyl ketone]
- inhibition of MDR1 induction by Adriamycin (2 μM) ([4]; inhibitor 25 μM): completely abrogate induction of MDR1 gene expression
- inhibition of MDR1 induction by Ara C (25 μM) ([4]; inhibitor 25 μM): completely abrogate induction of MDR1 gene expression; also recorded: complete suppression of AraC-induced MDR1 expression

Compound: COc1ccc2c(c1)CC[C@@H]1[C@@H]2CC[C@]2(C)[C@@H](NCCCCCCN3C(=O)C=CC3=O)CC[C@@H]12 [U73122, 1-(6-((1β-3-methoxyestra-1,3,5(10)-trien-17-yl)amino)hexyl)-1-H-pyrrole-2,5-dione]
- inhibition of AraC-induced MDR1 mRNA [5]: inhibited the induction of MDR1 mRNA; also recorded: reduced the steady-state levels of MDR1 mRNA

Compound: CC(=O)Oc1ccccc1C(=O)O [aspirin, acetylsalicylic acid]
- inhibition of MDR1 induction by Adriamycin (2 μM) ([4]; inhibitor 10 mM): completely abrogate induction of MDR1 gene expression
- inhibition of MDR1 induction by Ara C (25 μM) ([4]; inhibitor 10 mM): completely abrogate induction of MDR1 gene expression; also recorded: complete suppression of AraC-induced MDR1 expression

Compound: Clc1ccc(C(c2ccc(Cl)cc2)n2cc[n+](CC(OCc3ccc(Cl)cc3Cl)c3ccc(Cl)cc3Cl)c2)cc1 (stereo not drawn) [calmidazolium chloride]
- inhibition of AraC-induced MDR1 gene expression [6]: inhibit AraC-induced MDR1 gene expression
- inhibition of AraC-induced MDR1 gene expression ([6]; listed as Calmidazolium chloride): efficiently abrogate AraC induction of MDR1 expression

Compound: COc1ccc2c(c[n+](C)c3c4cc5c(cc4ccc23)OCO5)c1OC [chelerythrine]
- inhibition of MDR1 induction by cytotoxic drugs [7]: capable of inhibiting MDR1 induction by cytotoxic drugs
- prevention of MDR1 induction by chemotherapeutic drugs ([7]; 5 μM chelerythrine): prevent MDR1 induction by chemotherapeutic drugs
- inhibition of Ara-C induced MDR1 expression ([7]; chelerythrine 1 μM and 5 μM, H-9): Progressive dose-dependent inhibition
- MRP expression ([3]; 1-5 μM): capable of inhibiting MRP expression; also recorded: strongly inhibited

Compound: COC(=O)C=Cc1cc(O)ccc1O [methyl-2,5-dihydroxycinnamate]
- inhibition of Ara-C induced MDR1 expression ([7]; 32 μM erbstatin analog, H-9 cells): completely inhibit Ara-C induced MDR1 expression
- MRP expression ([3]; 32 μM): capable of inhibiting MRP expression; also recorded: strongly inhibited
- inhibition of TPA-induced MDR1 expression [8]: completely inhibited TPA-induced MDR1 expression; also recorded: inhibit MDR1 expression induced by treatment of sensitive cells with TPA

Compound: S=C(S)N1CCCC1 [pyrrolidone dithiocarbamate]
- inhibition of MDR1 induction by Ara C (25 μM) ([4]; inhibitor 20 μM): complete suppression of AraC-induced MDR1 expression
- inhibition of MDR1 induction by Adriamycin (2 μM) ([4]; inhibitor 100 μM): completely abrogate induction of MDR1 gene expression
- inhibition of MDR1 induction by Ara C (25 μM) ([4]; inhibitor 100 μM): completely abrogate induction of MDR1 gene expression

Compound: O=C([O-])c1ccccc1O.[Na+] [sodium salicylate]
- inhibition of MDR1 induction by Adriamycin (2 μM) ([4]; inhibitor 20 mM): completely abrogate induction of MDR1 gene expression
- inhibition of MDR1 induction by Ara C (25 μM) ([4]; inhibitor 20 mM): completely abrogate induction of MDR1 gene expression; also recorded: complete suppression of AraC-induced MDR1 expression

Compound: neomycin sulfate
- inhibition of Ara-C induced MDR1 expression ([7]; 10 mM neomycin sulfate): inhibit Ara-C induced MDR1 expression; also recorded: completely prevent cytotoxic drug and PKC agonist induction of MDR1 expression
- MRP expression ([3]; 10 mM): capable of inhibiting MRP expression; also recorded: strongly inhibited
- Inhibition of MRP expression ([3]; 10 mM, 10 h): ++++
